We go through 2 compounds from patent publication US10568939B2, “Composition and method for improving sleep duration and quality” (Board of Supervisors of Louisiana State University and …, priority 2016, dated 2020).

Test [1] in a line: Effect of individual components alone versus the novel combination on sleep. It counts as in vivo, human. The following applies: component alone or novel combination.
A further test concerns Janus kinase 3 (Jak3). In words: Inhibition of Janus kinase 3 (Jak3) expression in LPS-stimulated HT-29 cells. As to conditions: HT-29 cells stimulated by LPS; EGCG 20, 35, 50 μM; CE from 3, 6, 10 g light roasted chicory; combinations E1C1, E2C2, E3C3; triplicates; FIG. 2. It counts as cell-based. As to the method:
(§1) A series of in vitro tests were conducted, using levels of components that would be expected to approximate the concentrations that would be seen in vivo following oral consumption of 2 fluid ounces of the novel composition by a 70 kilogram individual.
(§2) • a. Inhibition of Janus kinase 3 (Jak3) by EGCG, CE, or a mixture of EGCG and CE. Jak3 is expressed solely in immune cells. Jak3 expression is an upstream event for the activation of TNF-α and subsequent cytokines such as IL-6. HT-29 colon cancer cells in T-75 flasks were stimulated by LPS (control). HT-29 cells in T-75 flasks were also stimulated by LPS and treated with EGCG (Treatment 1=20 μM (E1), Treatment 2=35 μM (E2), or Treatment 3=50 μM (E3)), CE (extract from 3 g (C1), 6 g (C2), or 10 g (C3) of light roasted chicory), or combinations of the respective low, medium, and high concentrations of EGCG and CE (E1C1, E2C2, or E3C3). C1, C2, or C3 concentrations approximated the levels that would be expected following consumption of 2 fluid ounces of the novel composition by a 70 kilogram individual. […] The effects of the treatments on histamine activity were determined by the inhibition of COX-2 expression. […] The effective concentrations of TNF-α, IL-1β or IL-6 in supernatants were calculated using a standard curve developed using known standards of TNF-α, IL-1β or IL-6. […]

A further test concerns the target T1, IL-6 (Homo sapiens, UniProt P05231).
T1 construct: IL-6 levels in HT-29 cell culture treated with LPS; endogenous in cells; host or cells: HT-29 (culture supernatant)
In words: IL-6 level by ELISA, supernatants of LPS-treated HT-29 cell cultures. It counts as cell-based. As to conditions: HT-29 supernatants, EGCG 20, 35, 50 μM, FIG. 6. As to the method: as §1, §2
On the technique in general: ELISA stands for enzyme-linked immunosorbent assay.

In the next test the target is T2, TNF-α (Homo sapiens, UniProt P01375).
T2 construct: TNF-alpha levels in HT-29 cell culture treated with LPS; endogenous in cells; host or cells: HT-29 (culture supernatant)
T2 sequence (P01375 77-233 limits assumed): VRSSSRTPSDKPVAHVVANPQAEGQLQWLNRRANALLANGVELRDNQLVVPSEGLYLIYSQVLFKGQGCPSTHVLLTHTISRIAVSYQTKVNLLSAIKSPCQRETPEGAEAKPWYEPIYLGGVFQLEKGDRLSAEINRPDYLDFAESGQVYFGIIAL
As to the kind of experiment: TNF-α level by ELISA, supernatants of LPS-treated HT-29 cell cultures. The following applies: HT-29 supernatants, EGCG 20, 35, 50 μM, FIG. 4. It counts as cell-based. How it is done: as §1, §2

The target in a further test is T3, IL-1β (Homo sapiens, UniProt P01584).
T3 construct: IL-1β levels in HT-29 cell culture treated with LPS; endogenous in cells; host or cells: HT-29 (culture supernatant)
T3 sequence (P01584 117-269): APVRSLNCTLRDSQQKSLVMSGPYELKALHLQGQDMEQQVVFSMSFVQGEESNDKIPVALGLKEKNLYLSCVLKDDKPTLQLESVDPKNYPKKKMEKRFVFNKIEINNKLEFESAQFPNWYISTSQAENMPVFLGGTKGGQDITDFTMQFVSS
In words: IL-1β level by ELISA, supernatants of LPS-treated HT-29 cell cultures. It counts as cell-based. As to conditions: HT-29 supernatants, EGCG 20, 35, 50 μM, FIG. 5. How it is done: as §1, §2

For a further test, the system named is COX-2 expression. As to the kind of experiment: Anti-histamine activity: inhibition of COX-2 expression in histamine-treated HeLa cells. It counts as cell-based. As to conditions: 1 μmol/L histamine, 18 h, EGCG 20, 35, 50 μM, positive controls mepyramine maleate and JNJ-7777120, FIG. 3. How it is done:
as §1, §2

T1 sequence (P05231 30-212): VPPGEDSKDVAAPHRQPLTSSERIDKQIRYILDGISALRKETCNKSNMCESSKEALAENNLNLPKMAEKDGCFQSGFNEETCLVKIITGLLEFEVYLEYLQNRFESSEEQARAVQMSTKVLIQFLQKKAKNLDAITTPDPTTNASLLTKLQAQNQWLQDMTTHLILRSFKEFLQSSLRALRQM

On to `O=C(O[C@@H]1Cc2c(O)cc(O)cc2O[C@@H]1c1cc(O)c(O)c(O)c1)c1cc(O)c(O)c(O)c1` [EGCG, Epigallocatechin gallate], for which, in test [1], the “Sleep after awakening in the middle of the night” value was “does not improve sleep after awakening in the middle of the night” and the “Sleep onset, depth, efficiency, duration” value is “does not enhance sleep onset, depth, efficiency, or duration”. In addition, the Jak3 expression entry in the test with Janus kinase 3 (Jak3) is “inhibited Jak3 expression in a dose-dependent manner”. Further, on IL-6, the IL-6 activity/level entry is “inhibited the activity of each of TNF-α, IL-1β and IL-6 in a dose-dependent manner”. The TNF-α activity/level entry on TNF-α is “inhibited the activity of each of TNF-α, IL-1β and IL-6 in a dose-dependent manner”. Further, on IL-1β, the IL-1β activity/level result was “inhibited the activity of each of TNF-α, IL-1β and IL-6 in a dose-dependent manner”. For the same compound, the “COX-2 expression (anti-histamine activity)” value in the test on COX-2 expression is “inhibited COX-2 expression in a dose-dependent manner, although not as strongly as did the positive controls”.

In the case of `CCNC(=O)CC[C@H](N)C(=O)O` [Theanine], in test [1], the “Sleep after awakening in the middle of the night” value is “does not improve sleep after awakening in the middle of the night” and the “Sleep onset, depth, efficiency, duration” value was “does not enhance sleep onset, depth, efficiency, or duration”.
